Measured values taken from patent US20240124445A1, “BENZENE RING COMPOUND AND USE THEREOF” (NANJING SHIJIANG MEDICINE TECHNOLOGY CO., LTD, priority 2020, published 2024).
Like-named read-outs stand apart in the source and are kept apart here.

What was measured:
NCI-H82 cell = assay: Cell viability (Promega CellTiter-Glo) of NCI-H82 cell; type: cell-based; conditions: Homo sapiens
Method: Cell viability was detected using the Promega CellTiter-Glo kit, the kit reflected cell viability by directly measuring intracellular ATP content. Small cell lung cancer cell NCI-H82 (ATCC, No. HTB-175) was cultured in 10% fetal bovine serum-containing RPMI1640 medium (+P/S).
(§1) Cell viability was detected using the Promega CellTiter-Glo kit, the kit reflected cell viability by directly measuring intracellular ATP content.
(§2) Daoy cell was cultured in 10% fetal bovine serum-containing DMEM medium (+P/S), and NCI-H82 cell was cultured in 10% fetal bovine serum-containing RPMI1640 medium (+P/S).
(§3) Cell viability was detected using the Promega CellTiter-Glo kit, the kit reflected cell viability by directly measuring intracellular ATP content. In the experiment, the IC50 value of different compounds on different tumor cell lines was detected to determine cell lines that were sensitive or insensitive to different compounds.
(§4) Tumor cells were cultured in 10% FBS-containing medium (+p/s), and incubated for 3 h or the following day, then the gradient diluted compound was added. After 3 days of culture, the relevant IC50 (50% inhibiting concentration) was measured. The name, source and culture conditions of each tumor cell line were as follows:
Cell line NCI-H82 (ATCC, No. HTB-175) was cultured in 10% fetal bovine serum-containing RPMI1640 medium (+P/S).

Daoy cell = assay: Cell viability (CellTiter-Glo) of Daoy cell with or without CsA; type: cell-based; conditions: Homo sapiens
Method: as §1, §2

[1] = Stability in human liver microsome; type: in vitro ADME; conditions: liver microsomes, pH 7.4, 1.5 μM drug solution, NADPH, 37° C., read-out: Human T1/2
Method: Vortexing for 10 min, the sample was centrifuged with 5594×g for 15 min in centrifuger (Thermo Multifuge×3R). • 10) taking 50 μL supernatant from the centrifuged sample, transferred to 96 well sample plate contain 50 μL water, mixed, and the sample was analyzed using LC-MS/MS.

G-401 = assay: Cell viability (CellTiter-Glo) of G-401; type: cell-based; conditions: Homo sapiens, 72 h; G-401, 3 days of culture, Table 5; read-out: IC50 G-401
Method: (§5) Cell viability was detected using the Promega CellTiter-Glo kit, the kit reflected cell viability by directly measuring intracellular ATP content. Different cancer cells was cultured in medium, the 50% inhibiting concentration (IC50) of compound AB24852 on cancer cells was determined using Promega CellTiter-Glo kit. The name, source and culture conditions of each tumor cell line were as follows:
Cell line G-401 (ATCC, No. CRL-1441) was cultured in 10% fetal bovine serum-containing McCoy's 5a medium (+P/S).
as §3
as §4, with “follows: […]” for “follows:”

MDA-MB-453 = assay: Cell viability (CellTiter-Glo) of MDA-MB-453; type: cell-based; conditions: Homo sapiens, 72 h; MDA-MB-453, 3 days of culture, Table 5; read-out: IC50 MDA-MB-453
Method: as §5
Cell line MDA-MB-453 (ATCC, No. HTB-131) was cultured in 10% fetal bovine serum-containing Leibovitz's L-15 medium (+P/S).
as §3
as §4, with “follows: […]” for “follows:”

SW48 = assay: Cell viability (CellTiter-Glo) of SW48; type: cell-based; conditions: Homo sapiens, 72 h; SW48, 3 days of culture, Table 5; read-out: IC50 SW48
Method: as §5
Cell line SW48 (ATCC, No. CCL-231) was cultured in 10% fetal bovine serum-containing Leibovitz's L-15 medium (+P/S).
as §3
as §4, with “follows: […]” for “follows:”

GB-1 = assay: Cell viability (CellTiter-Glo) of GB-1; type: cell-based; conditions: Homo sapiens, 72 h; GB-1, 3 days of culture
Method: as §3, §4
Cell line GB-1 (JCRB, No. IF050489) was cultured in 10% fetal bovine serum-containing DMEM medium (+P/S).

786-O = assay: Cell viability (CellTiter-Glo) of 786-O; type: cell-based; conditions: Homo sapiens, 786-0, 72 h, 3 days of culture
Method: as §3, §4
Cell line 786-0 (ATCC, No. CRL-1932) was cultured in 10% fetal bovine serum-containing RPMI1640 medium (+P/S).

CFPAC-1 = assay: Cell viability (CellTiter-Glo) of CFPAC-1; type: cell-based; conditions: Homo sapiens, 72 h; CFPAC-1, 3 days of culture
Method: as §3, §4
Cell line CFPAC-1 (ATCC, No. CRL-1918) was cultured in 10% fetal bovine serum-containing IMDM medium (+P/S).

SF-126 = assay: Cell viability (CellTiter-Glo) of SF-126; type: cell-based; conditions: Homo sapiens, 72 h; SF-126, 3 days of culture
Method: as §3
as §4, with “follows: […]” for “follows:”

[2] = NCI-H82, read-out: IC50 NCI-H82 cell without CsA
[3] = NCI-H82 cell, Table 1, read-out: IC50
[4] = read-out: IC50 Daoy cell with CsA
[5] = read-out: IC50 Daoy cell without CsA
[6] = 72 h, NCI-H82, 3 days of culture, Table 5, read-out: IC50 NCI-H82

## O=C1c2cc(Cl)ccc2CCC1[n+]1ccc2c(c1)CCC(c1ccccc1)N2 (stereo not shown) [AB27130]
NCI-H82 cell; [2]
  IC50: 770 nM
NCI-H82 cell; [3]
  IC50: 770 nM
Daoy cell; [4]
  IC50: 310 nM
Daoy cell; [5]
  IC50: 5500 nM
[1]
  half-life at 1 µM: 5.96 h

## O=C1c2cc(C(F)(F)F)ccc2CCC1[n+]1ccc2c(c1)CCC(c1ccccc1)N2 (stereo not shown) [AB27131]
NCI-H82 cell; [2]
  IC50: 440 nM
NCI-H82 cell; [3]
  IC50: 440 nM
Daoy cell; [4]
  IC50: 710 nM
Daoy cell; [5]
  IC50: 4750 nM
[1]
  half-life at 1 µM: 6.81 h

## Cc1ccc(C(=O)C[n+]2ccc(NCc3ccccc3)cc2)cc1 [AB24845A]
NCI-H82 cell; [6]
  IC50: 120 nM
NCI-H82 cell; [3]
  IC50: 120 nM
G-401
  IC50: 300 nM
MDA-MB-453
  IC50: 190 nM
SW48
  IC50: 140 nM
GB-1
  IC50: 4370 nM
786-O
  IC50: 38600 nM
CFPAC-1
  IC50: 29400 nM
SF-126
  IC50: 2280 nM

## Cc1ccc(C(=O)C[n+]2ccc(NCc3ccccc3)nc2)cc1 [AB24846]
NCI-H82 cell; [6]
  IC50: 510 nM
NCI-H82 cell; [3]
  IC50: 510 nM
G-401
  IC50: 690 nM
MDA-MB-453
  IC50: 820 nM
SW48
  IC50: 2050 nM
GB-1
  IC50: 12300 nM
786-O
  IC50: 47300 nM
CFPAC-1
  IC50: 36400 nM
SF-126
  IC50: 3610 nM

## O=C1c2cc(OC(F)(F)F)ccc2CCC1[n+]1ccc(NCc2ccccc2)cc1 (stereo not shown) [AB27156]
NCI-H82 cell; [2]
  IC50: 260 nM
NCI-H82 cell; [3]
  IC50: 260 nM
Daoy cell; [4]
  IC50: 240 nM
Daoy cell; [5]
  IC50: 1050 nM
[1]
  half-life at 1 µM: 17.5 h

## O=C(C[n+]1ccc2[nH]cc(Cc3ccccc3)c2c1)c1ccc(Cl)cc1 [AB24833A]
NCI-H82 cell; NCI-H82
  IC50: 3380 nM
NCI-H82 cell; NCI-H82, 72 h, read-out: IC50 NCI-H82
  IC50: 3380 nM
G-401
  IC50: 5300 nM
MDA-MB-453
  IC50: 5300 nM
SW48
  IC50: 8160 nM
GB-1
  IC50: 22000 nM
786-O
  IC50: 45400 nM
CFPAC-1
  IC50: 24800 nM
SF-126
  IC50: 21600 nM

## O=C1c2ccc(Cl)cc2CCC1[n+]1ccc(NCc2ccccc2)cc1 (stereo not shown) [AB24841A]
NCI-H82 cell; [6]
  IC50: 590 nM
NCI-H82 cell; [3]
  IC50: 590 nM
G-401
  IC50: 630 nM
MDA-MB-453
  IC50: 620 nM
SW48
  IC50: 800 nM
GB-1
  IC50: 16400 nM
786-O
  IC50: > 50000 nM
CFPAC-1
  IC50: 35700 nM
SF-126
  IC50: 10800 nM
[1]
  half-life at 1 µM: 20.4 h

## O=C(C[n+]1ccc(NCc2ccccc2)cc1)c1ccc(Br)cc1 [AB24808A]
NCI-H82 cell; [6]
  IC50: 610 nM
NCI-H82 cell; [3]
  IC50: 610 nM
G-401
  IC50: 910 nM
MDA-MB-453
  IC50: 360 nM
SW48
  IC50: 1780 nM
GB-1
  IC50: 5270 nM
786-O
  IC50: 44000 nM
CFPAC-1
  IC50: 20000 nM
SF-126
  IC50: 2980 nM
[1]
  half-life at 1 µM: 5.69 h

## CC(c1ccccc1)[n+]1ccc2c(ccn2C2CCc3ccc(Cl)cc3C2=O)c1 (stereo not shown) [AB27141]
NCI-H82 cell; [2]
  IC50: 10 nM
NCI-H82 cell; [3]
  IC50: 10 nM
Daoy cell; [4]
  IC50: 28 nM
Daoy cell; [5]
  IC50: > 1000 nM
[1]
  half-life at 1 µM: 4.85 h

## O=C(C[n+]1ccc(NCc2ccccc2)cc1)c1cccc(Cl)c1 [AB24805A]
NCI-H82 cell; [6]
  IC50: 370 nM
NCI-H82 cell; [3]
  IC50: 370 nM
G-401
  IC50: 420 nM
MDA-MB-453
  IC50: 210 nM
SW48
  IC50: 760 nM
GB-1
  IC50: 3430 nM
786-O
  IC50: 46500 nM
CFPAC-1
  IC50: 35700 nM
SF-126
  IC50: 3180 nM
[1]
  half-life at 1 µM: 3.71 h

## O=C(C[n+]1ccc(NCc2ccccc2)cc1)c1ccc(OC(F)(F)F)cc1 [AB24810A]
NCI-H82 cell; [6]
  IC50: 1340 nM
NCI-H82 cell; [3]
  IC50: 1340 nM
G-401
  IC50: 1950 nM
MDA-MB-453
  IC50: 2690 nM
SW48
  IC50: 2130 nM
GB-1
  IC50: 24500 nM
786-O
  IC50: > 50000 nM
CFPAC-1
  IC50: 36000 nM
SF-126
  IC50: 13100 nM
[1]
  half-life at 1 µM: 65.2 h

## O=C1c2cc(OC(F)(F)F)ccc2CCC1[n+]1ccc2c(ccn2Cc2ccccc2)c1 (stereo not shown) [AB27126]
NCI-H82 cell; [2]
  IC50: 150 nM
NCI-H82 cell; [3]
  IC50: 150 nM
Daoy cell; [4]
  IC50: 280 nM
Daoy cell; [5]
  IC50: 1950 nM
[1]
  half-life at 1 µM: 20.8 h

## O=C(C[n+]1ccc(NCc2ccccc2)nc1)c1ccc(-c2ccccc2)cc1 [AB24964]
NCI-H82 cell; [3]
  IC50: 1090 nM
[1]
  half-life at 1 µM: 3.6 h

## O=C1c2ccc(Cl)cc2CC1[n+]1ccc(NCc2ccccc2)cc1 (stereo not shown) [AB24840A]
NCI-H82 cell; [3]
  IC50: 2590 nM
[1]
  half-life at 1 µM: 2.33 h

## O=C1c2cc(C(F)(F)F)ccc2CCC1[n+]1ccc(NCc2ccccc2)cc1 (stereo not shown) [AB27144]
NCI-H82 cell; [2]
  IC50: 160 nM
NCI-H82 cell; [3]
  IC50: 160 nM
Daoy cell; [4]
  IC50: 210 nM
Daoy cell; [5]
  IC50: 1020 nM
[1]
  half-life at 1 µM: 75.2 h

## O=C1c2cc(C(F)(F)F)ccc2CCC1[n+]1ccc2c(ccn2Cc2ccccc2)c1 (stereo not shown) [AB27125]
NCI-H82 cell; [2]
  IC50: 110 nM
NCI-H82 cell; [3]
  IC50: 110 nM
Daoy cell; [4]
  IC50: 190 nM
Daoy cell; [5]
  IC50: 1460 nM
[1]
  half-life at 1 µM: 14.2 h
